This is an account of results in ChEMBL document CHEMBL6120941, “Discovery of SIRT1-Activating Hydrogen Sulfide Donating Derivatives for Efficient Resistant of Myocardial Ischemic Injury” (J Med Chem, 2024).

In assay [1] the test system is H9c2. In words: Cardioprotective activity against CoCl2-induced cellular hypoxia injury in rat H9c2 cells assessed as cell viability at 10 uM incubated for 24 hrs by CCK-8 assay (reference value: 51.80 +/- 2.58 %). The conditions noted are these: read-out: Activity. The format is functional. Background: Tetrazolium assays rely on reduction of a dye to a coloured formazan, in cell work by metabolically active cells.

The test system of assay [2] is H9c2. The assay is described as follows: Cardioprotective activity against CoCl2-induced cellular hypoxia injury in rat H9c2 cells assessed as increase in cell viability at 30 uM incubated for 24 hrs by CCK-8 assay. The format is functional, cell-based.
In assay [3] the test system is H9c2. In words: Cardioprotective activity against CoCl2-induced cellular hypoxia injury in rat H9c2 cells assessed as cell viability at 2.5 uM incubated for 24 hrs by CCK-8 assay (reference value: 51.80 +/- 2.58 %). The format is functional. The settings on record: read-out: Activity.
The subject of assay [4] is H9c2. In words: Cardioprotective activity against CoCl2-induced cellular hypoxia injury in rat H9c2 cells assessed as cell viability at 1.25 uM incubated for 24 hrs by CCK-8 assay (reference value: 51.80 +/- 2.58 %). The format is functional. The conditions noted are these: read-out: Activity.
Assay [5] concerns the target T1, NAD-dependent protein deacetylase sirtuin-1 (Homo sapiens) (UniProt Q96EB6).
T1 sequence (whole entry): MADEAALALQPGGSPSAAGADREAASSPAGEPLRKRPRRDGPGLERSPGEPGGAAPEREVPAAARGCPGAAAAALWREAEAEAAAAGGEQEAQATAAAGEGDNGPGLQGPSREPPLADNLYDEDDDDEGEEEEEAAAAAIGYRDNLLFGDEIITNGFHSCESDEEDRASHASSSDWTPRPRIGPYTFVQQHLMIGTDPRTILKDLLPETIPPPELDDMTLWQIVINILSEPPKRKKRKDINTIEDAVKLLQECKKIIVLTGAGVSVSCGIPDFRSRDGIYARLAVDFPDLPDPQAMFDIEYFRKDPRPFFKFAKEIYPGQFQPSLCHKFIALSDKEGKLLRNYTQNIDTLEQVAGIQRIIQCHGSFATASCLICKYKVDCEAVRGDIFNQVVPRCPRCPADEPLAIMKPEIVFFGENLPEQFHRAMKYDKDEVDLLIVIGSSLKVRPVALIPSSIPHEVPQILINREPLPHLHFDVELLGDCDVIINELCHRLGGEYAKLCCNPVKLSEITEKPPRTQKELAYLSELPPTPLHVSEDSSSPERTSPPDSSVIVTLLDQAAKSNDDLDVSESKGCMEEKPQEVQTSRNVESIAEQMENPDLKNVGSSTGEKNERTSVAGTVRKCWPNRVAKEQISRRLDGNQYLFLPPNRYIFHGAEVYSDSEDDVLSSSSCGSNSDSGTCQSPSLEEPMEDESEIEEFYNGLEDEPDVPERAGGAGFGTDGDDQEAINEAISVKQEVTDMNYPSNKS
In words: Activation of SIRT1 (unknown origin) using RHKK-ac-AMC as substrate incubated for 2 hrs by FDL assay relative to control. The conditions noted are these: filed as activator.

The test system of assay [6] is H9c2. The assay is described as follows: Cardioprotective activity against CoCl2-induced cellular hypoxia injury in rat H9c2 cells assessed as cell viability at 5 uM incubated for 24 hrs by CCK-8 assay (reference value: 51.80 +/- 2.58 %). The settings on record: read-out: Activity. The format is functional.
Assay [7] has as its system H9c2. In words: Cardioprotective activity against CoCl2-induced cellular hypoxia injury in rat H9c2 cells assessed as cell viability at 0.625 uM incubated for 24 hrs by CCK-8 assay (reference value: 51.80 +/- 2.58 %). The format is functional. The settings on record: read-out: Activity.
Assay [8] relates to H9c2. The assay is described as follows: Inhibition of apoptosis in CoCl2-induced cellular hypoxia injury in rat H9c2 cells assessed as decrease in Bax level at 5 to 10 uM incubated for 24 hrs by Western blot analysis. The format is functional, cell-based. The conditions noted are these: dose 5-10 µM.
For assay [9], the target named is T2, NAD-dependent protein deacetylase sirtuin-1 (Rattus norvegicus) (UniProt A0A0G2JZ79).
T2 sequence (whole entry): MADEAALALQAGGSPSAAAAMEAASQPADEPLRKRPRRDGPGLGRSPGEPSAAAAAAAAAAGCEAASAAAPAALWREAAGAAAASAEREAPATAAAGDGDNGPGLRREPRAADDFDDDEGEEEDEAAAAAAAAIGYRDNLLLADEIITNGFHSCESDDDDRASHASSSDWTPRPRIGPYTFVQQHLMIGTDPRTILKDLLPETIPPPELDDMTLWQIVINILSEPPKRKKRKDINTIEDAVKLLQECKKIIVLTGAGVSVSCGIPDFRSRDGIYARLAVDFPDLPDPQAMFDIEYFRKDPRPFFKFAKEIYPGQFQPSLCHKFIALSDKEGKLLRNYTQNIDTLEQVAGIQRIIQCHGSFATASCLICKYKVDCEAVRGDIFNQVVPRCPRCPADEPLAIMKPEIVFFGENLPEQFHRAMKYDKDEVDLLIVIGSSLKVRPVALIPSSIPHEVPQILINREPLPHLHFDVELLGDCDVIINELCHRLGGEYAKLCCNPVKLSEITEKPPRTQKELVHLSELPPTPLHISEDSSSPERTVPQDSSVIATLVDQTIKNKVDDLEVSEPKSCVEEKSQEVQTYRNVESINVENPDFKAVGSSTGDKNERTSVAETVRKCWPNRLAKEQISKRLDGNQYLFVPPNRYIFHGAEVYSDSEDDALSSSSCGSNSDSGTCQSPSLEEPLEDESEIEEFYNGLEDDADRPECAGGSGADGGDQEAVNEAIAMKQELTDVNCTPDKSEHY
The assay is described as follows: Activation of SIRT1 in CoCl2-induced cellular hypoxia injury in rat H9c2 cells at 50 uM incubated for 24 hrs by Western blot analysis. The format is cell-based. The settings on record: filed as activator. (In general: In western blotting, separated proteins are transferred to a membrane and probed.)

Assay [10] has as its system Rattus norvegicus. In words: In vivo activation of SIRT1 in myocardial tissue of myocardial ischemia Sprague-Dawley rat model at 50 mg/kg, IG treated for 7 days consecutively followed by ISO administration daily for 2 days consecutively by Western blot analysis. The format is functional, organism-based. The settings on record: time 9.0 day.
Assay [11] relates to H9c2. In words: Cardioprotective activity against CoCl2-induced cellular hypoxia injury in rat H9c2 cells assessed as mitochondrial membrane potential at 50 uM incubated for 24 hrs by JC-1 staining based analysis (reference value: 48.08 %). The format is functional.
The subject of assay [12] is Rattus norvegicus. The assay is described as follows: Cardioprotective activity against myocardial ischemia Sprague-Dawley rat model assessed as increase in PGC1-alpha level in myocardial tissue at 50 mg/kg, IG treated for 7 days consecutively followed by ISO administration daily for 2 days consecutively by Western blot analysis. The format is functional, organism-based. The conditions noted are these: time 9.0 day.

The test system of assay [13] is H9c2. In words: Inhibition of apoptosis in CoCl2-induced cellular hypoxia injury in rat H9c2 cells assessed as increase in caspase-3 level at 5 to 10 uM incubated for 24 hrs by Western blot analysis. The format is functional, cell-based. The conditions noted are these: dose 5-10 µM.
For assay [14], the system named is H9c2. The assay is described as follows: Cardioprotective activity against CoCl2-induced cellular hypoxia injury in rat H9c2 cells assessed as increase in PGC1-alpha level at 50 uM incubated for 24 hrs by Western blot analysis. The format is functional, cell-based.
The subject of assay [15] is H9c2. The assay is described as follows: Inhibition of apoptosis in CoCl2-induced cellular hypoxia injury in rat H9c2 cells assessed as increase in Bcl-2 level at 5 to 10 uM incubated for 24 hrs by Western blot analysis. The settings on record: dose 5-10 µM. The format is functional, cell-based.
The test system of assay [16] is H9c2. In words: Cardioprotective activity against CoCl2-induced cellular hypoxia injury in rat H9c2 cells assessed as reduction in apoptosis at 50 uM incubated for 24 hrs by flow cytometry. The format is functional, cell-based. (In general: In flow cytometry, cells or beads pass a laser one at a time.)
In assay [17] the test system is Rattus norvegicus. In words: Cardioprotective activity in myocardial ischemia Sprague-Dawley rat model assessed as decrease in ISO-induced ST segment at 50 mg/kg, IG treated for 7 days consecutively followed by ISO administration daily for 2 days consecutively by ECG analysis. The format is functional, organism-based. The settings on record: time 9.0 day.
The test system of assay [18] is H9c2. In words: Cardioprotective activity against CoCl2-induced cellular hypoxia injury in rat H9c2 cells assessed as reduction in necrosis at 50 uM incubated for 24 hrs by flow cytometry. The format is functional, cell-based.

The source made the active and inactive calls. The calls are words filed in the database; no cut-off is given here.

Consider `CC(C)(O)[C@@H]1CC[C@@](C)([C@H]2CC[C@]3(C)[C@@H]2[C@H](O)C[C@@H]2[C@@]4(C)CC[C@H](O)C(C)(C)[C@@H]4CC[C@]23C)O1`, for which, in assay [1], the viability at 10 µM was found to be 81.2%. Further, in assay [2], the outcome was inactive. In addition, the viability at 2.5 µM in assay [3] is 74.8%. Also, in assay [4], the viability at 1.25 µM came out at 72.6%. Further, the Activity in assay [5] is 123%. Besides, the viability at 5 µM in assay [6] is 79.1%. Besides, the viability at 0.625 µM in assay [7] stood at 70.6%.

In the case of `Oc1ccc(/C=C/c2cc(O)cc(O)c2)cc1` [RESVERATROL], the inhibition entry in assay [8], in assay [13] and in [15] was “Active” in each case. Also, the result in [9], in [10], in assay [12], in [14], in assay [16] and in assay [17] was Active. In addition, the outcome in assay [18] was Active. In addition, the viability at 10 µM in [1] was determined as 76.1%. Further, the viability at 2.5 µM in assay [3] was found to be 64.1%. For the same compound, the Activity stood at 73.27% in assay [11] and 158% in [5]. Moreover, the viability at 1.25 µM in [4] is 58.8%. Besides, the viability at 5 µM in assay [6] turned out to be 68.5%. The viability at 0.625 µM in [7] stood at 58.3%.
